Measurements published in US8143212B2 (Vicuron Pharmaceuticals Inc., priority 2002, dated 2012).
Values after ≈ are worked out from the molar mass of the structure shown. Like-named read-outs stand apart in the source and are kept apart here.

Assays:
Type in all cases: cell-based
S aureus = assay: MIC, microbiological activity (Tables 2, 3)
S. aureus = assay: MIC by NCCLS microdilution of study organisms (Table 29)
Method: (§1) MICs were determined in MHB by standard NCCLS microdilution techniques. […] All MICs were performed at least in duplicate.

S. pneumoniae = assay: as above; settings: Streptococcus pneumoniae
Method: as §1

[1] = Staphylococcus aureus, MRSA, S. aureus strain MRSA
[2] = Staphylococcus aureus, S. aureus strain Smith

`CN[C@H]1C(=O)N[C@@H]2Cc3ccc(cc3)Oc3cc4cc(c3O[C@@H]3O[C@H](C(=O)O)[C@@H](O)[C@H](O)[C@H]3NC(=O)CCCCCCCCC(C)C)Oc3ccc(cc3Cl)[C@@H](O)[C@@H]3NC(=O)[C@H](NC(=O)[C@@H]4NC(=O)[C@@H](NC2=O)c2cc(cc(O)c2Cl)Oc2cc1ccc2O)c1ccc(O)c(c1)-c1c(O[C@H]2O[C@H](CO)[C@@H](O)[C@H](O)[C@@H]2O)cc(O)cc1[C@@H](C(=O)NCCCN(C)C)NC3=O` [Dalbavancin] gave an MIC (S aureus; 3817 S aureus clin. Isolate, read-out: MIC) of less than 0.03 µg/mL, an MIC (S aureus; L 819 S aureus Smith 50% serum) of 2 µg/mL (≈ 1.1 µM) and an MIC (S aureus; L 819 S aureus Smith 50% serum, read-out: MIC) of 1 µg/mL (≈ 0.55 µM). It also gave an MIC (S aureus; Staphylococcus aureus, MSSA, MSSA Staph. aureus Smith 819, read-out: MIC) of 0.06 µg/mL (≈ 0.033 µM), an MBC (S. aureus; S. aureus strain 25923) of 0.25 µg/mL (≈ 0.138 µM) and an MIC (S. aureus; S. aureus strain MRSA) of 0.06 µg/mL (≈ 0.033 µM). It also gave an MBC (S. aureus; S. aureus strain Smith) of 0.25 µg/mL (≈ 0.138 µM), an MIC (S. aureus; S. aureus strain Smith) of 0.12 µg/mL (≈ 0.0661 µM) and an MBC (S. aureus; [1]) of 0.25 µg/mL (≈ 0.138 µM). It also gave an MIC (S. aureus; [1]) of 0.12 µg/mL (≈ 0.0661 µM), an MBC (S. aureus; Staphylococcus aureus, S. aureus strain 25923) of 0.5 µg/mL (≈ 0.275 µM) and an MIC (S. aureus; Staphylococcus aureus, S. aureus strain 31005) of 0.06 µg/mL (≈ 0.033 µM). For the same compound, the MBC (S. aureus; Staphylococcus aureus, S. aureus strain 33591) was 0.25 µg/mL (≈ 0.138 µM), the MIC (S. aureus; Staphylococcus aureus, S. aureus strain 307109) was 0.06 µg/mL (≈ 0.033 µM) and the MBC (S. aureus; [2]) was 0.5 µg/mL (≈ 0.275 µM). For the same compound, the MIC (S. aureus; [2]) was 0.06 µg/mL (≈ 0.033 µM), the MIC (S. aureus; Staphylococcus aureus, read-out: MICs, six S. aureus isolates) was 0.06 to 0.12 µg/mL (≈ 0.033 to 0.0661 µM) and the MIC (S. pneumoniae; S. pneumoniae SP1396) was 0.008 µg/mL (≈ 0.0044 µM). The MIC (S. pneumoniae; S. pneumoniae strain 1199, read-out: MIC) was 0.004 µg/mL (≈ 0.0022 µM), the MIC (S. pneumoniae; S. pneumoniae strain 1293, read-out: MIC) was 0.004 µg/mL (≈ 0.0022 µM) and the MIC (S. pneumoniae; S. pneumoniae strain 1325, read-out: MIC) was 0.008 µg/mL (≈ 0.0044 µM). For the same compound, the MIC (S. pneumoniae; S. pneumoniae strain 1329, read-out: MIC) was 0.008 µg/mL (≈ 0.0044 µM), the MIC (S. pneumoniae; S. pneumoniae strain 10813, read-out: MIC) was 0.03 µg/mL (≈ 0.0165 µM) and the MIC (S. pneumoniae; five pneumococcal organisms, read-out: MICs) was 0.004 to 0.03 µg/mL (≈ 0.0022 to 0.0165 µM).
